Measurements taken from patent publication US10239869B2, “Sulfonamide compounds as voltage-gated sodium channel modulators” (LUPIN LIMITED, priority 2015, dated 2019).

Assays:
Nav 1.5 = Nav 1.5 (Homo sapiens (Human), UniProt Q14524); assay: Inhibition of sodium channels, Red Membrane Potential Dye FLIPR assay, veratridine depolarization; assay type: cell-based; conditions: HEK-293 cells overexpressing the channel; for inhibition at 10 µM: HEK-293 cells overexpressing Nav 1.5
Nav 1.7 = Nav 1.7 (Homo sapiens (Human), UniProt Q15858); assay: as above; assay type: cell-based; conditions: HEK-293 cells overexpressing the channel; read-out: Nav1.7 IC50
Sequence of Nav 1.7 (Q15858 whole entry): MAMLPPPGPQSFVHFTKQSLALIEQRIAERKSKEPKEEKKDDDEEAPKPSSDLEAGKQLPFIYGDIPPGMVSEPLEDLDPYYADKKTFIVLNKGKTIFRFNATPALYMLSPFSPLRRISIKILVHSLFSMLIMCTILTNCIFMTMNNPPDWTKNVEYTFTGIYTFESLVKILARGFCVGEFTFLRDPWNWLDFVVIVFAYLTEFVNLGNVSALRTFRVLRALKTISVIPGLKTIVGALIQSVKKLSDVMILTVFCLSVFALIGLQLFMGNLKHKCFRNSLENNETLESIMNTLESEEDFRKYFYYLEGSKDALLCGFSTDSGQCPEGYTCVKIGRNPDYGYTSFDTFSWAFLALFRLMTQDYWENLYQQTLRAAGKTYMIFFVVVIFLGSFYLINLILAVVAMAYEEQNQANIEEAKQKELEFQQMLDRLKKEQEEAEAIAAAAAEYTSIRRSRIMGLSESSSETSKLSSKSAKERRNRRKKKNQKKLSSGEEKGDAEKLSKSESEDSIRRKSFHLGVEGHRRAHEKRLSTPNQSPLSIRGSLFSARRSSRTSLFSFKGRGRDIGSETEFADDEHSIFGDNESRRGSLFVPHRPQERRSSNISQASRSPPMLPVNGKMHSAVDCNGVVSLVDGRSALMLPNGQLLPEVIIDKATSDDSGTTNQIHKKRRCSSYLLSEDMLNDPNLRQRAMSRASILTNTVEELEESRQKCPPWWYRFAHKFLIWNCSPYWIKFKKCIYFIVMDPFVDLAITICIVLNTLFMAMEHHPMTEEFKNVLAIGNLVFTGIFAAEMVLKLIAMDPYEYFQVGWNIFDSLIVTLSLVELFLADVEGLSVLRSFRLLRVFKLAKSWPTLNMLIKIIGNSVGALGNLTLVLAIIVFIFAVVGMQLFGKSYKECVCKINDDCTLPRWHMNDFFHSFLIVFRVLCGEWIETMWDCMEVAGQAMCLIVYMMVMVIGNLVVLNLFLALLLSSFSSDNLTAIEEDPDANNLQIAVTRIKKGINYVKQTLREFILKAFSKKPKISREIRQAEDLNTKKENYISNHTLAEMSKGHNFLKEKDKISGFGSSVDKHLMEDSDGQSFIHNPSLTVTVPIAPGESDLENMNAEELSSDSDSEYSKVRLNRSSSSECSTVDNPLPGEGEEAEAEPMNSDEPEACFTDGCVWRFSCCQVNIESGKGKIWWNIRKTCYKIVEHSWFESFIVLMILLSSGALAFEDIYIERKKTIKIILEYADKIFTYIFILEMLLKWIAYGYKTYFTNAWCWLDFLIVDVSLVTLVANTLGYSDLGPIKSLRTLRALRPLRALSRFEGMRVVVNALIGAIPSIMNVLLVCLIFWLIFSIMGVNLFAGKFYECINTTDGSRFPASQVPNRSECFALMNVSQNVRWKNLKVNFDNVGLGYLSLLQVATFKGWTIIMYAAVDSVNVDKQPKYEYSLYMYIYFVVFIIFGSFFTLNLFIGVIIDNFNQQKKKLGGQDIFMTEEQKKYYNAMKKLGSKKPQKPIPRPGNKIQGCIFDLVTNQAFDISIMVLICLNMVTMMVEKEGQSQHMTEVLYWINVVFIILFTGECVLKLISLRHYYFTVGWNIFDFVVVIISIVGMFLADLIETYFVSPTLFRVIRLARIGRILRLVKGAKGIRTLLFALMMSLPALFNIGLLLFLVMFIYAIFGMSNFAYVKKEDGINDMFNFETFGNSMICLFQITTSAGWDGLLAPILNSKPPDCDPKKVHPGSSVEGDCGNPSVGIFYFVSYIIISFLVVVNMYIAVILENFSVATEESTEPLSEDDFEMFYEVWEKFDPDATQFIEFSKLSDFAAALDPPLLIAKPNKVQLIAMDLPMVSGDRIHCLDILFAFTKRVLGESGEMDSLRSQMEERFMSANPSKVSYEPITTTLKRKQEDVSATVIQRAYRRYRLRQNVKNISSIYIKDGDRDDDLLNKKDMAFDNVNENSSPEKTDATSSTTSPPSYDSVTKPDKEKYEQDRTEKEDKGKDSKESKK

Sequence of Nav 1.5 (Q14524 whole entry): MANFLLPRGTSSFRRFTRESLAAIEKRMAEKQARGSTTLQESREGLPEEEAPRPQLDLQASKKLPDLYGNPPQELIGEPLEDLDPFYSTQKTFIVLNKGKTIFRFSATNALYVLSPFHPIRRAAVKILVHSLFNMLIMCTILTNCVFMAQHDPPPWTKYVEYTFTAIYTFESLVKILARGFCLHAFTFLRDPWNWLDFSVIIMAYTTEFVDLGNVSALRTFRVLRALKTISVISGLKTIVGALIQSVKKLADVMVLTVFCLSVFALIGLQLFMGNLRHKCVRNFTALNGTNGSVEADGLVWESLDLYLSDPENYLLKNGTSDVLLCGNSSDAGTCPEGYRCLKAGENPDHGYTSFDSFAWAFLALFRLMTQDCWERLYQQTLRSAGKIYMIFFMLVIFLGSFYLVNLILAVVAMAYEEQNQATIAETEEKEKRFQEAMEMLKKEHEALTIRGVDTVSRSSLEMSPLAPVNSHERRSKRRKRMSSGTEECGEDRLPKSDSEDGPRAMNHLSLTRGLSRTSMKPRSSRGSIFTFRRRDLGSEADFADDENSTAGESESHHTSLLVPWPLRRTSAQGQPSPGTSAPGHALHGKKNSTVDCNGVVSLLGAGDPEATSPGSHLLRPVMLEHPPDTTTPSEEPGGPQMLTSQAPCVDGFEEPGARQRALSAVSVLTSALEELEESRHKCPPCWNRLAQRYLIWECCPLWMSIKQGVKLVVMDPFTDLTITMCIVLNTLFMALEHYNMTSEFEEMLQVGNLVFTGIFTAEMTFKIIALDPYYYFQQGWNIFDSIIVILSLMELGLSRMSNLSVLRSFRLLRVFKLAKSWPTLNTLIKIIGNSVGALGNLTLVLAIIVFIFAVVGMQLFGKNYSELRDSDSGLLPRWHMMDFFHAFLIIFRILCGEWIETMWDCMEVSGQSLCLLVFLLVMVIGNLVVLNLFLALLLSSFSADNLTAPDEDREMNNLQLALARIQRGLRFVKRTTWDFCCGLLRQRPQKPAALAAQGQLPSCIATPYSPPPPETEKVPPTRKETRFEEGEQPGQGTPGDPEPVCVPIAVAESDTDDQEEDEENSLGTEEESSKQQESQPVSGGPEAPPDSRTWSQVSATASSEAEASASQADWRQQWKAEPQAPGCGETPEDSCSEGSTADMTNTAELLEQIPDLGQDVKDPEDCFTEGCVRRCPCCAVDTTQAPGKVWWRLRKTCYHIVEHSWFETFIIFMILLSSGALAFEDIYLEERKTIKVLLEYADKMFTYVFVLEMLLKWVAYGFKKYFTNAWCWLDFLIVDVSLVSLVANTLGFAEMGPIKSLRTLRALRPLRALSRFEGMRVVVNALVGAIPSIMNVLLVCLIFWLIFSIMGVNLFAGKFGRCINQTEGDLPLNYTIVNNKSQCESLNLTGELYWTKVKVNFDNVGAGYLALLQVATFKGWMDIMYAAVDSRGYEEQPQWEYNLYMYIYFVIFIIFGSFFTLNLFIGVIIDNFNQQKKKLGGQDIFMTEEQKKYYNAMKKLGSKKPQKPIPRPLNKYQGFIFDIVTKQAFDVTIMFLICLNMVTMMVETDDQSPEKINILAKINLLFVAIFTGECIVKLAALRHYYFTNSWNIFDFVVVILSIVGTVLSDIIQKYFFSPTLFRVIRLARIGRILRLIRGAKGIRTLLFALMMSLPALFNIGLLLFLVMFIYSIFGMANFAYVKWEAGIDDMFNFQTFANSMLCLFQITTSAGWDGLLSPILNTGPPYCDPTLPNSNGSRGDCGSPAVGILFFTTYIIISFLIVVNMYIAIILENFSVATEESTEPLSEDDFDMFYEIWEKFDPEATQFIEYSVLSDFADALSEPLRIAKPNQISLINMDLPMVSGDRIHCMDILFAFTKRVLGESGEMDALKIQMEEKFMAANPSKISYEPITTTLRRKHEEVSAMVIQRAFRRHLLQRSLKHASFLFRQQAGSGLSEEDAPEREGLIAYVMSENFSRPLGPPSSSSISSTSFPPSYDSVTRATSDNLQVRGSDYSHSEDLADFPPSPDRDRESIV

IC50 (Nav 1.7) | Structure (SMILES) | IC50 (Nav 1.5; read-out: Nav1.5 IC50 (bound given in μM)) | inhibition at 10 µM (Nav 1.5)
229 nM | O=S(=O)(Nc1cccnn1)c1ccc2c(c1)OCC[C@@H]2c1ccc(C(F)(F)F)cc1Cl (racemic) [Example 107, (S/R)-4-(2-Chloro-4-(trifluoromethyl)phenyl)-N-(pyridazin-3-yl)chroman-7-sulfonamide] | > 10 µM | –
16 nM | COCCOc1cc(C(F)(F)F)ccc1[C@H]1CCOc2cc(S(=O)(=O)Nc3cccc(F)n3)ccc21 (racemic) [Example 129, (R/S)—N-(6-fluoropyridin-2-yl)-4-(2-(2-methoxyethoxy)-4-(trifluoromethyl)phenyl)chroman-7-sulfonamide] | – | 62%
39 nM | O=S(=O)(Nc1ncccn1)c1ccc2c(c1)OCC[C@@H]2c1ccc(C(F)(F)F)cc1CCF (racemic) [Example 153, (R/S)-4-(2-(2-fluoroethyl)-4-(trifluoromethyl)phenyl)-N-(pyrimidin-2-yl)chroman-7-sulfonamide] | – | 35%
